Experimental data as given in patent US20060121488A1, “Glutamate transport modulatory compounds and methods” (priority 2003, published 2006).

Columns and labels:
[1] = test system: primary cortical mixed neuronal-glial cell cultures; settings: 1 μM added 48 hours prior to 1 hour OGD; 50% without drug
Experimental: Method. Primary cortical mixed neuronal-glial cell cultures are prepared from gestation day 14-16 CD1 mice. The preparation of these cultures from mouse fetal cortex is well-described. Experiments are performed at days in vitro 13-15. In the experimental condition, cultures are subjected to oxygen glucose deprivation (OGD), an in-vitro model of ischemia. Cortical cells are either subjected to control treatment (media, modified Earle's balanced salt solution including glucose and bubbled with 5% CO2 95% O2, is changed alongside treatment groups, but no OGD is performed), or 5 minutes (sublethal) of OGD (using modified Earle's balanced salt solution which is devoid of glucose and bubbled with 10% H2, 85% N2, and 5% to deoxygenate). Anaerobic conditions are achieved using an anaerobic chamber at 37° C. OGD is terminated by exchange of media back to oxygenated growing medium. Twenty-four hours following the above, cortical cells are subjected either to no treatment, or one hour of OGD. Neuronal survival is determined by computer-assisted cell counting after staining with the fluorescent vital dyes propidium iodide (as an indicator of neuronal death) and Hoechst 33342 (as an indicator of total number of neurons) and is presented as percent of cell death. Glial nuclei fluoresce at a lower intensity and are gated out. […] Following 1 hour OGD, cells are returned to growing medium without drugs.

[2] = test system: large ventral horn motor neurons in organotypic spinal cord cultures; assay: In vitro model of chronic motor neurodegeneration (THA, organotypic spinal cord cultures); type: cell-based, rat; settings: THA 100 μM, ceftriaxone 0 to 100 μM, 4 weeks
Experimental: In vitro model of chronic motor neurodegeneration (FIG. 7B). A model of chronic neurodegeneration was used, based on the blockade of glutamate transport in spinal cord organotypic cultures, with the non specific inhibitor threo-hytdroyxaspartate (THA) or TBOA. Chronic incubation of cultures with THA (or TBOA) leads to chronic increase in extra cellular glutamate and subsequent slow death of motor neurons (over 4 weeks).
To determine if drug induced GLT1 promoter activation, and the subsequent over expression of GLT1 protein could be neuroprotective, we used the organotypic spinal cord paradigm. Organotypic spinal cord cultures were prepared from lumbar spinal cords of 8-day-old rat pups, as described previously. […] No drugs were added for the first 7 days following culture preparation. THA was then added to experimental cultures at a concentration of 100 μM, which produces death of motor neurons within 3 to 4 weeks. […] After 4 weeks, cultures were fixed, and immuostained for neurofilament (SMI-32, Sternberger) to quantify large ventral horn motor neurons (a well established method to follow motor neuron survival in this system).

EAAT2 = assay: Spinal cord organotypic culture screen for EAAT2 protein expression (slot blot); type: cell-based, rat
Experimental: Screening Assay for EAAT2 Protein overexpression. […] Organotypic Spinal Cord. […] Briefly, 300 um sections of rat lumbar spinal cord, from postnatal day 8-10 rat pups, are placed on Millipore Millicell CM semipermeable membranes. Each well contains 5 slices (FIG. 2A). […] Each drug (10-100 μM) was added for 3 days, along with cell culture medium/serum. Cultures were harvested and 5-50 μg of tissue was applied to slot blot apparatus for detection of EAAT2 by standard Western blotting/chemiluminescence methods described in the past. […] All antipeptide antibodies were affinity purified and highly specific for transporter subtypes. […] For each antibody slot blot, the homogenates used are expected to be within the linear range for antibody detection, based on prior standard curves. Screening Library-Assay Design. […] The library is composed of 1040 compounds in 96 well plates, that also included positive control for transporter synthesis (dibutyryl cyclic AMP [dbcAMP], GDNF). […] Each compound was studied at a final concentration of 10-100 μM. All assays were performed in duplicate. Data Analysis. All blots were analyzed by laser densitometry (BioRad Image Quant) and the duplicate points were averaged. Each blot included a positive control standard (e.g. dbcAMP) and a negative control standard (e.g. serum, DMSO). […]

[3] = test system: cultures prepared from GLT-1 null mice; assay: Chronic motor neurodegeneration model in cultures prepared from GLT-1 null mice; type: cell-based; settings: not shown
G93A SOD1 mice = assay: In vivo neuroprotection in the G93A SOD1 mouse
Source text: Numerous studies have documented a contributory role for excess glutamate in this mouse model- and role for modulating glutamate receptors or transporters in neuroprotective strategies. Guo H., et al. Hum Mol Genet. 2003; 12:2519-2532. Modest over expression—by a transgenic approach—can alter disease onset and/or survival.

[4] = 200 mg/kg ip from approximately 12 weeks of age

## CO/N=C(\C(=O)N[C@@H]1C(=O)N2C(C(=O)O)=C(CSc3nc(=O)c(=O)[nH]n3C)CS[C@H]12)c1csc(N)n1 [ceftriaxone]
[1]
  percentage of neuronal cell death after 1 hour OGD: 20%
[2]
  motor neuron loss: prevented motor neurons loss in a dose dependent manner
EAAT2; at the concentration used for neuroprotection (Preliminary Data Phases 1 and 2)
  increase of GLT1 protein and function: at least 3 fold
EAAT2; follow-up dose response analysis, spinal cord organotypic cultures
  EC50: 3.5 µM
[3]
  neuroprotection in GLT-1 null cultures: neuroprotection cannot be seen
G93A SOD1 mice; [4]
  duration of strength effect: 4 weeks
  time after treatment at which strength effect was observed: ≤ 7 days
G93A SOD1 mice; 200 mg/kg ip from approximately 12 weeks of age (disease onset)
  increase in over all survival: 7 to 10 days
G93A SOD1 mice; 200 mg/kg ip from approximately 12 weeks of age, preservation lost by 18 weeks of age
  loss of muscle strength (grip strength): significantly delayed loss of muscle strength
